Measured values taken from US8501762B2, “Tetrahydroprotoberberine compounds, the synthetic method and the use thereof” (Shanghai Institute of Materia Medica, Chinese Academy of …, priority 2005, dated 2013).
Where a name gives a salt, the structure may show the parent alone.

Experiments:
dopamine D1 receptor = dopamine D1 receptor (Homo sapiens, UniProt P21728); assay: Dopamine receptor competitive binding, D1; conditions: for inhibition at 10 µM / Inhibition(%) for D1: tested at 1 × 10^−5 mol/L; for Ki: calculated from the inhibition data
Chain of dopamine D1 receptor (P21728 whole entry): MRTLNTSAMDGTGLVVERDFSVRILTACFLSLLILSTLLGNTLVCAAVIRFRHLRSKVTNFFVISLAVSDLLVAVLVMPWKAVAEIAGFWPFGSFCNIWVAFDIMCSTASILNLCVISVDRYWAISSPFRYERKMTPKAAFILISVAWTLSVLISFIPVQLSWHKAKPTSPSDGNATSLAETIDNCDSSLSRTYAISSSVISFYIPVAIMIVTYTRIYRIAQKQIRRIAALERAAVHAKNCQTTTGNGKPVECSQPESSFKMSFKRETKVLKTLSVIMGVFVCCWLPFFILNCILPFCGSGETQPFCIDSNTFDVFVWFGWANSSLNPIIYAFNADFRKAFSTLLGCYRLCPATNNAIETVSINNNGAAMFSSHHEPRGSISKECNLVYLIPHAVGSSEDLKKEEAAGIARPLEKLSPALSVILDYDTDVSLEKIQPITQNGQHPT
Protocol: (§1) 1. Dopamine Receptor Binding Studies
The Ki is calculated according the inhibition data tested.

mice = assay: PCP-induced immobility test in mice; type: in vivo; conditions: 20 mg/kg (i.g.), PCP-treated mice; PCP group 78.1±28 s, P<0.05
Protocol: 3. PCP-Induced Immobility Test in Mice
Phencyclidine(PCP)-induced immobility test in mice was selected as the model to evaluate the antipsychotic effect of some compounds of the present invention (Br J Pharmacol, 1995, 116: 2531-2537). The dose is selected according the ED50 of l-CSLMS. Given PCP, immobility times of mice was increased, whereas the active compound can decrease the immobility time. At 20 mg/kg (i.g.), the immobility time of compound of example 47 is 54.9±19 s, and the immobility time of l-CSLMS is 48.0±27 s, which has statistically significant differences (P<0.05) compared to PCP group (78.1±28 s).

dopamine D2 receptor = dopamine D2 receptor (Homo sapiens, UniProt P14416); assay: Dopamine receptor competitive binding, D2; conditions: for inhibition at 10 µM / Inhibition(%) for D2: tested at 1 × 10^−5 mol/L; for Ki: calculated from the inhibition data
Chain of dopamine D2 receptor (P14416 whole entry, species assumed): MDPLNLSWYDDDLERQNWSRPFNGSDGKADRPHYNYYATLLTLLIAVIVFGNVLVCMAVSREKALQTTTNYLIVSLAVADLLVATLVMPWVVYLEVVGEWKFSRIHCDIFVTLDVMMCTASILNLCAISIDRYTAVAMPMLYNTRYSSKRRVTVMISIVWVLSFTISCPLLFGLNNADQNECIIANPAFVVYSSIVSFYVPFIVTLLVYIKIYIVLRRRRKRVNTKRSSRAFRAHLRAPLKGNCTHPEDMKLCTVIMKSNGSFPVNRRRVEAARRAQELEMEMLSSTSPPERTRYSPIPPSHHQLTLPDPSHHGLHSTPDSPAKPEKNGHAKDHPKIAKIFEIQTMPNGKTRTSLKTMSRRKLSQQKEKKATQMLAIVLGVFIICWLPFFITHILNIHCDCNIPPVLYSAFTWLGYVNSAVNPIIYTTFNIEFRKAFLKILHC
Protocol: as §1
The affinities of these compounds on dopamine receptors were evaluated with competitive receptor binding assays (Acta Pharmacol Sin, 1989, 10:104 and Acta Pharmacol Sin, 2003, 24(3): 225-229). The Ki is calculated according the inhibition data tested.

6-OHDA-lesioned rats = 6-OHDA-lesioned rats rotation test; type: in vivo; conditions: 10 mg/kg
Protocol: 2. 6-OHDA-Lesioned Rats Rotation Test
Some of the compounds were evaluated on 6-OHDA-lesioned rats model.

[1] = preliminary clinic studies, cited from earlier work

inhibition at 10 µM (dopamine D2 receptor) [%] | Compound | inhibition at 10 µM (dopamine D1 receptor) [%] | Ki (dopamine D1 receptor) [nM] | also measured
– | COc1cc2c(cc1OC(C)=O)C1Cc3ccc(OC(C)=O)c(OC)c3CN1CC2 (single isomer, unassigned; (-)) [Example 48, (−)-2,10-diacetoxy-3,9-dimethoxy-5,8,13,13a-tetrahydro-6H-dibenzo[a,g]quinolizine] | – | – | effect in 6-OHDA-lesioned rats model (6-OHDA-lesioned rats): positive effects
– | COc1cc2c(cc1O)C1Cc3c(Cl)cc(OC)c(OC(C)=O)c3CN1CC2 (single isomer, unassigned; (-)) [Example 50, (−)-2-hydroxy-3,10-dimethoxy-9-acetoxy-12-chloro-5,8,13,13a-tetrahydro-6H-dibenzo[a,g]quinolizine] | 100 | – | Inhibition(%) for D2 (dopamine D2 receptor): 58.5%
– | COc1cc2c(cc1O)C1Cc3c(Cl)cc(OC)c(O)c3CN1CC2 (stereo not drawn) [CSL, 2,9-dihydroxy-3,10-dimethoxy-12-chloro-5,8,13,13a-tetrahydro-6H-dibenzo[a,g]quinolizine, reference compound] | – | 6.1 ± 3 | –
– | COc1cc2c(cc1O)C1Cc3c(Cl)cc(OC)c(OC(C)=O)c3CN1CC2 (stereo not drawn) [Example 7, 2-hydroxy-3,10-dimethoxy-9-acetoxy-12-chloro-5,8,13,13a-tetrahydro-6H-dibenzo[a,g]quinolizine] | – | 10.7 ± 1 | Inhibition(%) for D1 (dopamine D1 receptor): 100%; effect in 6-OHDA-lesioned rats model (6-OHDA-lesioned rats): positive effects; Ki (dopamine D2 receptor): 6900 ± 1500 nM; Inhibition(%) for D2 (dopamine D2 receptor): 100.0%
– | CC(=O)O.COc1cc2c(cc1OC(C)=O)C1Cc3c(Cl)cc(OC)c(OC(C)=O)c3CN1CC2 (stereo not drawn) [Example 8, 2,9-diacetoxy-3,10-dimethoxy-12-chloro-5,8,13,13a-tetrahydro-6H-dibenzo[a,g]quinolizine acetate] | – | – | Inhibition(%) for D1 (dopamine D1 receptor): 100.0%; Inhibition(%) for D2 (dopamine D2 receptor): 93.8%
57.4 | COc1cc2c(cc1O)C1Cc3c(Cl)cc(OC)c(OCCO)c3CN1CC2 (stereo not drawn) [Example 17, 2-hydroxy-3,10-dimethoxy-9-(2-hydroxy-ethoxy)-12-chloro-5,8,13,13a-tetrahydro-6H-dibenzo[a,g]quinolizine] | 97.9 | – | –
– | COc1cc2c(cc1OCc1ccccc1)C1Cc3c(Cl)cc(OC)c(OCCOCCO)c3CN1CC2 (stereo not drawn) [Example 18, 2-benzyloxy-3,10-dimethoxy-9-[2-(2-hydroxy-ethoxy)-ethoxy]-12-chloro-5,8,13,13a-tetrahydro-6H-dibenzo[a,g]quinolizine] | – | – | melting point: 122 °C
100 | CCOC(=O)Oc1c(OC)cc(Cl)c2c1CN1CCc3cc(OC)c(O)cc3C1C2 (stereo not drawn) [Example 21, 2-hydroxy-3,10-dimethoxy-9-ethoxycarbonyloxy-12-chloro-5,8,13,13a-tetrahydro-6H-dibenzo[a,g]quinolizine] | 100 | 2.6 ± 0.7 | –
44 | COc1cc2c(cc1OCc1ccccc1)C1Cc3c(Cl)cc(OC)c(OC(=O)[C@@H](N)Cc4ccccc4)c3CN1CC2 (stereo partly drawn) [Example 23, 2-benzyloxy-3,10-dimethoxy-9-phenylalanyloxy-12-chloro-5,8,13,13a-tetrahydro-6H-dibenzo[a,g]quinolizine] | 77.5 | – | –
– | COCCOCCOCC(=O)Oc1c(OC)cc(Cl)c2c1CN1CCc3cc(OC)c(O)cc3C1C2 (stereo not drawn) [Example 43, 2-hydroxy-3,10-dimethoxy-9-{2-[2-(2-methoxy-ethoxy)-ethoxy]-acetoxy-}-12-chloro-5,8,13,13a-tetrahydro-6H-dibenzo[a,g]quinolizine] | – | 404 ± 188 | –
93.3 | Oc1cc2c(cc1O)C1Cc3c(Cl)cc(O)c(O)c3CN1CC2 (stereo not drawn) [Example 44, 2,3,9,10-tetrahydroxy-12-chloro-5,8,13,13a-tetrahydro-6H-dibenzo[a,g]quinolizine] | 100 | – | effect in 6-OHDA-lesioned rats model (6-OHDA-lesioned rats): positive effects
– | COc1cc(F)c2c(c1OC)CN1CCc3cc4c(cc3C1C2)OCO4 (stereo not drawn) [Example 63, 2,3-methylenedioxyl-9,10-dimethoxy-12-fluoro-5,8,13,13a-tetrahydro-6H-dibenzo[a,g]quinolizine] | – | – | Inhibition(%) for D1 (dopamine D1 receptor): 95.2%
– | COc1cc2c(cc1O)[C@@H]1Cc3c(Cl)cc(OC)c(O)c3CN1CC2 [l-CSLMS, S-chloroscoulerine mesylate, reference compound] | – | – | immobility time (mice): 48.0 ± 27 s; Ki (dopamine D2 receptor): 1700 ± 500 nM
– | COc1cc2c(cc1O)[C@@H]1Cc3ccc(O)c(OC)c3CN1CC2 [l-SPD, l-Stepholidine] | – | – | side effects ([1]; schizophrenia): few side effects; activity in the treatment of schizophrenia [1]: favorable activity

Compound | inhibition at 10 µM (dopamine D2 receptor) [%] | inhibition at 10 µM (dopamine D1 receptor) [%] | Ki (dopamine D1 receptor) [nM] | also measured
COc1cc2c(cc1OC(C)=O)C1Cc3c(Cl)cc(OC)c(OC(C)=O)c3CN1CC2 (single isomer, unassigned; (-)) [Example 47, (−)-2,9-diacetoxy-3,10-dimethoxy-12-chloro-5,8,13,13a-tetrahydro-6H-dibenzo[a,g]quinolizine] | 77.4 | 100 | – | immobility time (mice): 54.9 ± 19 s
COc1cc2c(cc1OC(C)=O)C1Cc3ccc(OC)c(OC(C)=O)c3CN1CC2 (stereo not drawn) [Example 34, 2,9-diacetoxy-3,10-dimethoxy-5,8,13,13a-tetrahydro-6H-dibenzo[a,g]quinolizine] | 90.7 | 99.4 | 51.8 ± 32.2 | Ki (dopamine D2 receptor): 10600 ± 2600 nM
COCCOCCOCC(=O)Oc1cc2c(cc1OC)CCN1Cc3c(c(Cl)cc(OC)c3OC(=O)COCCOCCOC)CC21 (stereo not drawn) [Example 42, 2,9-bis-{2-[2-(2-methoxy-ethoxy)-ethoxy]-acetoxy-}3,10-dimethoxy-12-chloro-5,8,13,13a-tetrahydro-6H-dibenzo[a,g]quinolizine] | 39.7 | 96.2 | 35.4 ± 4.4 | Ki (dopamine D2 receptor): 14900 ± 200 nM
